{"source": "the NIST ThermoML archive (doi:10.1016/j.jct.2014.05.015)", "assay": "mn = molality of the nth substance listed, in mol/kg", "details": "100 kPa, Liquid; for speed of sound: Frequency=3 MHz, Sing-around technique in a fixed-path interferometer; for mass density: Vibrating tube method", "note": "± gives the expanded uncertainty stated by the source."}
{"smiles": "C[N+](C)(C)CC(=O)O.[Cl-]", "note": "[betaine hydrochloride] + O", "values": [{"measurement": "speed of sound", "setting": "293.15 K, m1 = 0.00988", "value": "1483.8 ± 1.6", "unit": "m/s"}, {"measurement": "speed of sound", "setting": "293.15 K, m1 = 0.02034", "value": "1484.8 ± 1.6", "unit": "m/s"}, {"measurement": "speed of sound", "setting": "293.15 K, m1 = 0.03199", "value": "1486 ± 1.6", "unit": "m/s"}, {"measurement": "speed of sound", "setting": "293.15 K, m1 = 0.03929", "value": "1486.6 ± 1.6", "unit": "m/s"}, {"measurement": "speed of sound", "setting": "293.15 K, m1 = 0.04992", "value": "1487.6 ± 1.6", "unit": "m/s"}, {"measurement": "speed of sound", "setting": "293.15 K, m1 = 0.05925", "value": "1488.4 ± 1.6", "unit": "m/s"}, {"measurement": "mass density", "setting": "293.15 K, m1 = 0.00988", "value": "998.597 ± 0.26", "unit": "kg/m3"}, {"measurement": "mass density", "setting": "293.15 K, m1 = 0.02034", "value": "998.988 ± 0.26", "unit": "kg/m3"}, {"measurement": "mass density", "setting": "293.15 K, m1 = 0.03199", "value": "999.418 ± 0.26", "unit": "kg/m3"}, {"measurement": "mass density", "setting": "293.15 K, m1 = 0.03929", "value": "999.672 ± 0.26", "unit": "kg/m3"}, {"measurement": "mass density", "setting": "293.15 K, m1 = 0.04992", "value": "1000.05 ± 0.26", "unit": "kg/m3"}, {"measurement": "mass density", "setting": "293.15 K, m1 = 0.05925", "value": "1000.37 ± 0.26", "unit": "kg/m3"}, {"measurement": "speed of sound", "setting": "298.15 K, m1 = 0.00988", "value": "1497.7 ± 1.6", "unit": "m/s"}, {"measurement": "speed of sound", "setting": "298.15 K, m1 = 0.02034", "value": "1498.7 ± 1.6", "unit": "m/s"}, {"measurement": "speed of sound", "setting": "298.15 K, m1 = 0.03199", "value": "1499.8 ± 1.6", "unit": "m/s"}, {"measurement": "speed of sound", "setting": "298.15 K, m1 = 0.03929", "value": "1500.5 ± 1.6", "unit": "m/s"}, {"measurement": "speed of sound", "setting": "298.15 K, m1 = 0.04992", "value": "1501.3 ± 1.6", "unit": "m/s"}, {"measurement": "speed of sound", "setting": "298.15 K, m1 = 0.05925", "value": "1502.3 ± 1.6", "unit": "m/s"}, {"measurement": "mass density", "setting": "298.15 K, m1 = 0.00988", "value": "997.445 ± 0.26", "unit": "kg/m3"}, {"measurement": "mass density", "setting": "298.15 K, m1 = 0.02034", "value": "997.829 ± 0.26", "unit": "kg/m3"}, {"measurement": "mass density", "setting": "298.15 K, m1 = 0.03199", "value": "998.253 ± 0.26", "unit": "kg/m3"}, {"measurement": "mass density", "setting": "298.15 K, m1 = 0.03929", "value": "998.509 ± 0.26", "unit": "kg/m3"}, {"measurement": "mass density", "setting": "298.15 K, m1 = 0.04992", "value": "998.883 ± 0.26", "unit": "kg/m3"}, {"measurement": "mass density", "setting": "298.15 K, m1 = 0.05925", "value": "999.196 ± 0.26", "unit": "kg/m3"}, {"measurement": "speed of sound", "setting": "303.15 K, m1 = 0.00988", "value": "1510 ± 1.6", "unit": "m/s"}, {"measurement": "speed of sound", "setting": "303.15 K, m1 = 0.02034", "value": "1511 ± 1.6", "unit": "m/s"}, {"measurement": "speed of sound", "setting": "303.15 K, m1 = 0.03199", "value": "1512.1 ± 1.6", "unit": "m/s"}, {"measurement": "speed of sound", "setting": "303.15 K, m1 = 0.03929", "value": "1512.8 ± 1.6", "unit": "m/s"}, {"measurement": "speed of sound", "setting": "303.15 K, m1 = 0.04992", "value": "1513.6 ± 1.6", "unit": "m/s"}, {"measurement": "speed of sound", "setting": "303.15 K, m1 = 0.05925", "value": "1514.2 ± 1.6", "unit": "m/s"}, {"measurement": "mass density", "setting": "303.15 K, m1 = 0.00988", "value": "996.042 ± 0.26", "unit": "kg/m3"}, {"measurement": "mass density", "setting": "303.15 K, m1 = 0.02034", "value": "996.428 ± 0.26", "unit": "kg/m3"}, {"measurement": "mass density", "setting": "303.15 K, m1 = 0.03199", "value": "996.847 ± 0.26", "unit": "kg/m3"}, {"measurement": "mass density", "setting": "303.15 K, m1 = 0.03929", "value": "997.099 ± 0.26", "unit": "kg/m3"}, {"measurement": "mass density", "setting": "303.15 K, m1 = 0.04992", "value": "997.471 ± 0.26", "unit": "kg/m3"}, {"measurement": "mass density", "setting": "303.15 K, m1 = 0.05925", "value": "997.795 ± 0.26", "unit": "kg/m3"}, {"measurement": "speed of sound", "setting": "308.15 K, m1 = 0.00988", "value": "1520.7 ± 1.6", "unit": "m/s"}, {"measurement": "speed of sound", "setting": "308.15 K, m1 = 0.02034", "value": "1521.7 ± 1.6", "unit": "m/s"}, {"measurement": "speed of sound", "setting": "308.15 K, m1 = 0.03199", "value": "1522.8 ± 1.6", "unit": "m/s"}, {"measurement": "speed of sound", "setting": "308.15 K, m1 = 0.03929", "value": "1523.5 ± 1.6", "unit": "m/s"}, {"measurement": "speed of sound", "setting": "308.15 K, m1 = 0.04992", "value": "1524.4 ± 1.6", "unit": "m/s"}, {"measurement": "speed of sound", "setting": "308.15 K, m1 = 0.05925", "value": "1525.1 ± 1.6", "unit": "m/s"}, {"measurement": "mass density", "setting": "308.15 K, m1 = 0.00988", "value": "994.425 ± 0.26", "unit": "kg/m3"}, {"measurement": "mass density", "setting": "308.15 K, m1 = 0.02034", "value": "994.806 ± 0.26", "unit": "kg/m3"}, {"measurement": "mass density", "setting": "308.15 K, m1 = 0.03199", "value": "995.225 ± 0.26", "unit": "kg/m3"}, {"measurement": "mass density", "setting": "308.15 K, m1 = 0.03929", "value": "995.477 ± 0.26", "unit": "kg/m3"}, {"measurement": "mass density", "setting": "308.15 K, m1 = 0.04992", "value": "995.846 ± 0.26", "unit": "kg/m3"}, {"measurement": "mass density", "setting": "308.15 K, m1 = 0.05925", "value": "996.165 ± 0.26", "unit": "kg/m3"}, {"measurement": "speed of sound", "setting": "313.15 K, m1 = 0.00988", "value": "1529.8 ± 1.6", "unit": "m/s"}, {"measurement": "speed of sound", "setting": "313.15 K, m1 = 0.02034", "value": "1530.7 ± 1.6", "unit": "m/s"}, {"measurement": "speed of sound", "setting": "313.15 K, m1 = 0.03199", "value": "1531.8 ± 1.6", "unit": "m/s"}, {"measurement": "speed of sound", "setting": "313.15 K, m1 = 0.03929", "value": "1532.4 ± 1.6", "unit": "m/s"}, {"measurement": "speed of sound", "setting": "313.15 K, m1 = 0.04992", "value": "1533.3 ± 1.6", "unit": "m/s"}, {"measurement": "speed of sound", "setting": "313.15 K, m1 = 0.05925", "value": "1534.1 ± 1.6", "unit": "m/s"}, {"measurement": "mass density", "setting": "313.15 K, m1 = 0.00988", "value": "992.605 ± 0.26", "unit": "kg/m3"}, {"measurement": "mass density", "setting": "313.15 K, m1 = 0.02034", "value": "992.98 ± 0.26", "unit": "kg/m3"}, {"measurement": "mass density", "setting": "313.15 K, m1 = 0.03199", "value": "993.389 ± 0.26", "unit": "kg/m3"}, {"measurement": "mass density", "setting": "313.15 K, m1 = 0.03929", "value": "993.638 ± 0.26", "unit": "kg/m3"}, {"measurement": "mass density", "setting": "313.15 K, m1 = 0.04992", "value": "993.998 ± 0.26", "unit": "kg/m3"}, {"measurement": "mass density", "setting": "313.15 K, m1 = 0.05925", "value": "994.316 ± 0.26", "unit": "kg/m3"}]}
